One may read the bioavailability as the share of a dose that reaches the circulation, judged against a reference dose that is usually intravenous. For orientation: AUC(0-t) means exposure summed from dosing to a finite time, without extrapolation to infinity. By clearance is commonly meant a measure of how efficiently the substance is removed, as volume per time.

SMILES strings stand for the structures. Where two headings read alike, the source gives them in different places.

The text below walks through data of patent US20250388572A1, “USE OF HPK1 INHIBITOR IN PREVENTION AND/OR TREATMENT OF HUMAN PATHOGEN INFECTION” (priority 2022, published 2025).

One data set concerns hPBMCs. Briefly: Pharmacodynamic evaluation for hPBMCs (IL-2 by ELISA). It counts as cell-based, human. As to conditions: 1 uM, 24 hours, CD3/CD28-activated hPBMCs. The method, then:
The hPBMCs used in this experiment were purchased from Shanghai AoNeng Biotechnology Co., Ltd. CD3 antibody was pre-coated onto a 96-well plate for future use. Cells were seeded into the 96-well plate at 2×10^6/ml, with 200 μL per well. CD28 antibody was added for activation, and Compound A2 was added at a final concentration of 1 μM. The supernatant was collected after 24 hours of treatment. IL-2 levels were determined by ELISA, and the effects of A2 and CD3/CD28 on the activation of hPBMCs were compared.
(In general: ELISA stands for enzyme-linked immunosorbent assay.)

Data set [1] is described as follows: in vivo. As to conditions: male, cynomolgus monkey. On the procedure: Three male Cynomolgus macaques were administrated a single dose via intravenous injection (iv, 1 mg/kg, n=3), followed by oral administration (po, 10 mg/kg, n=3) after washing out for one week. Intravenous injection was performed by formulating the compounds into 1.0 mg/mL solutions using water or 10% DMSO/30% PEG400/water and administering it at a volume of 1 mL/kg. Oral administration was performed by formulating the compounds into 2.0 mg/mL solutions or suspensions using water or 0.5% methylcellulose/1.7 meq 1N hydrochloric acid and administering it at a volume of 5 mL/kg.
The pharmacokinetic parameters of the compounds were calculated using the non-compartmental model.

Data set [2] can be described thus: in vivo. As to conditions: male, Sprague Dawley, rat. The method, then: Six male Sprague Dawley rats were administrated a single dose via intravenous injection (iv, n=3) and oral administration (po, n=3), respectively. Intravenous injection was performed by formulating the compounds into 0.25 mg/ml or 0.5 mg/mL solutions using 10% DMSO/30% PEG400/60% water and administering it at a volume of 2 mL/kg. Oral administration was performed by formulating the compounds into 0.6 mg/ml or 2.0 mg/mL homogeneous suspensions using 0.5% methylcellulose and administering it at a volume of 5 mL/kg.
The pharmacokinetic parameters of the compounds were calculated using the WinNolin non-compartmental model.

The conditions of data set [3]: beagle, dog, microsomes, 1 h, 10 µM. On the procedure: (§1) The procedure for identifying microsomal metabolites is as follows:
(§2) The compounds (test compounds and their numbers are shown below, among which compounds A1 and B1 are prepared by referring to the relevant method disclosed in CN110396087A) were weighed and dissolved into dimethyl sulfoxide to prepare a 20 mM solution. The compound stock solution was diluted with 50% acetonitrile in water (v/v) to a concentration of 1.0 mM as a working solution. Liver microsomes (20 mg/mL) were diluted to 1.27 mg/mL with 50 mM dipotassium hydrogen phosphate buffer as a liver microsome working solution. Reduced coenzyme was weighed and dissolved in 3307 μL of phosphate buffer (50 mM) to 5.0 mM as a reduced coenzyme working solution. For T=60 minutes samples, 4 μL of test working solution (1.0 mM) was added, followed by 316 μL of liver microsome working solution (1.27 mg/mL), and finally, 80 μL of reduced coenzyme working solution was added to start the reaction. For T=0 minutes samples, 316 μL of liver microsome working solution (1.27 mg/mL) was added and then 80 μL of reduced coenzyme working solution was added to start the reaction, without test solution incubation. After incubation at 37° C. for 60 minutes, 1200 μL of stop solution was added to stop the enzyme reaction. For T=0 minute samples, 4 μL of test working solution (1.0 mM) was added. The sample plate was placed on a vortexer and vortexed at 600 rpm for 5 minutes. Then, the sample plate was centrifuged at 4000 rpm for 10 minutes. The supernatant was removed, mixed, and dried at room temperature with nitrogen. The residue dried with nitrogen was redissolved in 300 μL of 10% acetonitrile (0.1% FA) solvent and then centrifuged at 4000 rpm for 15 minutes. The supernatant was transferred to a detection plate for mass spectrometry. Mass spectrometry was performed using LC/Q-Exactive plus.
(§3) 7-Ethoxycoumarin (10 μM) was selected as a positive control compound and operated in parallel with the compounds.

The conditions of data set [4]: cynomolgus macaque, microsomes, 1 h, 10 µM. The method, then: as §1, §2, §3
The conditions of data set [5]: rat, microsomes, 1 h, 10 µM. On the procedure:
as §1, §2, §3

The next data set has as its system MHV-A59 virus. Briefly: Pharmacodynamic evaluation for MHV, high-dose virus group. It counts as in vivo, C57BL/6 mice. As to conditions: 10 mg/kg daily, 2×10^6 PFU; for survival rate: all control mice died. The method, then:
The effect of A2 on the prevention and treatment of MHV was investigated.
High-dose virus group: 21 male SPF grade C57BL/6 mice, aged 4 weeks, were divided into three groups: control group, precaution group and therapy group. These mice were anesthetized and then injected intrahepatically (i.h.) with 100 μL of DMEM containing 2×10^6 PFU MHV-A59 virus. The precaution group was given the first dose of A2 at 10 mg/kg 24 hours before the challenge, and the therapy group was given the first dose of A2 at 10 mg/kg 24 hours after the challenge, followed by daily continuous administration, both the precaution group and the therapy group being given a daily dose of 10 mg/kg. The weight change, clinical symptoms of disease and mortality of infected mice were monitored daily.

The conditions of data set [6]: human, microsomes, 1 h, 10 µM. The method, then:
as §1, §2, §3

For `[2H]C([2H])([2H])N1CCC(n2cc(-c3cnc(N)c(OCc4cccc(C#CC(C)(C)O)c4)c3)cn2)CC1` [Compound A2, 4-(3-(((2-amino-5-(1-(1-trideuteriomethylpiperidin-4-yl)-1H-pyrazol-4-yl)pyridin-3-yl)oxy)methyl)phenyl)-2-methylbut-3-yn-2-ol], the “IL-2 concentration ratio (stimulated by A2−unstimulated)/(stimulated−unstimulated)” value in the data set with hPBMCs is on record as 5.89 fold. In addition, the bioavailability in “in vivo [1]” was 18.8%; in “in vivo [2]” (po, 10 mg/kg), 23.2%. Moreover, the AUC(0-t) is 949 ng·h/mL in the data set “in vivo [1]” (iv, 1 mg/kg); 1760 ng·h/mL in “in vivo [1]” (po, 10 mg/kg); 247 ng·h/mL in the data set “in vivo [2]” (iv, 1 mg/kg); 572 ng·h/mL in the data set “in vivo [2]” (po, 10 mg/kg). Further, the clearance in “in vivo [1]” (iv, 1 mg/kg) came to 16.7 mL/min/kg; in “in vivo [2]” (iv, 1 mg/kg), 71 mL/min/kg. The “remaining percentage of the parent cores after 60 min” value came out at 7.0% in data set [3], 29.6% in data set [4], 52.1% in data set [5] and 83.9% in data set [6]. The survival rate with MHV-A59 virus (precaution group) was found to be 42.86%; in the data set on MHV-A59 virus (therapy group), 28.57%. Further, the average body weight is 13.39 g in the data set with MHV-A59 virus (precaution group, day 1); 16.34 g in the data set on MHV-A59 virus (precaution group, day 8); 12.48 g in the data set on MHV-A59 virus (therapy group, day 1); 11.39 g with MHV-A59 virus (therapy group, day 8).
